# Assay results from EP0201359A2, “Use of phthalide isoquinoline derivatives for treatments inhibiting the formation of lipid peroxides” (MITSUBISHI KASEI CORPORATION, priority 1985, dated 1986).
# Read-outs that look alike come from different tables or passages of the source.
# Columns and labels:
# rat liver microsome = assay: Formation of lipid peroxide in vitro in rat liver microsome (TBA method); type: biochemical
# Method: Lipid peroxide was produced in vitro by using rat liver microsome. The microsome was prepared in a usual method from rat starved for 24 hours, and the final concentration thereof was adjusted to 15 - 18 mg proteins/ml.
# To the thus prepared microsome was added Fe(N03)3, ADP (adenosine diphosphate), NADPH (nicotinamide adenine dinucleotide phosphate), glucose 6-phosphate and glucose 6-phosphate dehydrogenase so that the final concentrations of these additives were 200 uM, 7 mM, 7.5 mM, 20 mM and 2.0 U.I., respectively.
# The resultant mixture was incubated at 37°C to produce the lipid peroxide. The activity of compound No. 1 and vitamin E to inhibit the formation of the lipid peroxide was measured. The quantity of the lipid peroxide was determined in accordance with TBA method (thiobarbiturate method, "Biochemical Medicine", Vol. 15, p. 212 (1976)) and expressed in terms of MDA (malon dialdehyde) amount (nmol) in 1 mg of protein.
# isolated hepatocytes = assay: Formation of lipid peroxide in isolated hepatocytes after addition of carbon tetrachloride; type: cell-based, rat; settings: Concentration 10 µM, carbon tetrachloride 5 mM; for inhibition at 10 µM: Rattus norvegicus, Hepatocyte, 3 hours, read-out: Free MDA (3 hours) % Inhibition
# Method: Lipid peroxide was produced in vitro in cell membranes by using hepatocytes isolated by means of collagenase.
# The isolated hepatocytes were prepared by the method of collagenase perfusion from the liver of rat which was fed for one week with phenobarbital in drinking water. The isolated hepatocytes (1 x 10^6 cells/ml Hanks solution containing 1 % BSA and 10 mM HEPES, pH 7.4) were taken into a conical flask in which test compounds were placed. Then, the cells were incubated at 37°C and produced the lipid peroxide by the addition of carbon tetrachloride (5 mM).
# The activity of the compounds shown in Table I and vitamin E to inhbit the formation of the lipid peroxide was measured. The amount of the lipid peroxide was determined in accordance with the method of Mihara et al. (Yakugaku Zasshi; Journal of the Pharmaceutical Society of Japan, Vol. 102, No. 7, 670-677 (1982)) and expressed in terms of inhibition rate (%) of the formation of lipid peroxide after the addition of carbon tetrachloride.
# [1] = test system: liver of the carbon tetrachloride-treated rat; assay: Lipid peroxide in the liver of carbon tetrachloride-treated rat, oral administration; type: in vivo; settings: 24 hours after CCl4
# Method: The lipid peroxide in the liver of the rat treated with CC14 increases. Carbon tetrachloride of 25 % V/V in olive oil was administered orally to rats by the dose of 2 ml/kg. After 24 hours, the amount of the lipid peroxide in the liver of the carbon tetrachloride-treated rat was increased to approx. 6 times higher than untreated rat. The amount of the lipid peroxide was determined by the method of Mihara et al. as in Example 3 and was expressed in terms of MDA amount (nmol) in 1 g of liver. The activity of compound No. 1 and vitamin E to inhibit the formation of the lipid peroxide was measured. Compound No. 1 was orally administered to the carbon tetrachloride-treated rat in the form of suspension in the surfactant "Tween 80" by the amount of 25, 50 or 100 mg/kg/day nine days before the treatment of carbon tetrachloride.
# [2] = test system: rat polymorphonuclear leukocytes (PMN); assay: Production of O2- by polymorphonuclear leukocytes stimulated with PMA (cytochrome C reduction); type: cell-based; settings: Leukocyte, PMA 125 ng/ml; for inhibition at 3.3 µM: Conc. 3.3 µM; for inhibition at 10 µM: Conc. 10.0 µM; for inhibition at 33 µM: Conc. 33.0 µM
# Method: In 20 hours after injection of 10 ml of 1 % casein into the abdominal cavity of a […], many polymorphonuclear leukocytes appear in the cavity. An activity of the polymorphonuclear leukocytes can be determined in an in vitro system. Briefly stated, addition of phorbol myristate acetate, PMA, as a stimulant into a test tube containing a buffer and the polymorphonuclear leukocytes induces the production of O2^- by the polymorphonuclear leukocytes. […] See Wei Hsueh et al., Nature, 290 (23), 710-713 (1981).
# Thus, measurements were carried out using rat polymorphonuclear leukocytes (PMN) induced by 1 % casein and PMA (phorbol-12-myristate-13-acetate) as a stimulant. First, 1,830 µl of phosphate buffer, pH 7,4, 50 µl of cytochrome C (Cyt C) in BSA, 20 µl of a sample (compound) and 50 µl of PMN were stirred at 37°C. After adding 50 µl of PMA to a final concentration of 125 ng/ml, the change of Cyt C reduction was traced by an absorption at 550 nm. The number of PMN per tube was 2 x 10^6 cells.
# Mast cells = assay: Histamine release from mast cells stimulated with compound 48/80 or ascarid protein; type: cell-based, male Wistar rats; settings: compound 48/80 and protein from epidermis of ascarid as stimulants
# Method: Histamine release can be experimentally investigated in vitro with use of mast cells derived from rat's abdominal cavity. Thus, after the mast cells are pre-incubated in the presence of an IgE antibody, e.g. IgE antibody prepared by sensitization of rabbit with a protein derived from the epidermis of ascarid, addition of a corresponding IgE antigen, e.g. the protein prepared from the epidermis of ascarid, induces the release of histamine from the mast cells. Such release of histamine can also be induced by addition of an artificial stimulant compound 48/80, ATP (adenosine triphosphate) to mast cells.
# Mast cells were collected from the abdominal cavity of male Wistar rats of 400 - 450 g in body weight in a conventional manner. After pre-incubation of 5 x 10^4 cells in Krebs-Ringer buffer, pH 7.4, for 10 minutes, 0,1 µg/ml of the compound 48/80 was added. After incubation for an additional 10 minutes, the cells were removed by centrifugation at 3,000 rpm for 5 minutes. Thereafter, histamine in the supernatant was quantitatively measured according to Shore's method described in J. Phar. […] As a control, total amount of histamine contained in mast cell was measured. A ratio of the amount of histamine released after the treatment with the compound 48/80 as a stimulant to the total amount of histamine as the control was calculated according to the following equation : [formula]
# [3] = Plasma concentration (AUC) after oral administration to beagle dogs, after fast or after diet; type: in vivo; settings: male, dog, 200 mg/kg, 30 minutes after diet, dogs No. 1-5 and mean in last row, read-out: AUC of tritoqualine concentration in blood for 5 hours
# Method: Tritoqualine was orally administered to male beagle dogs, […], body weight of 9.5 - 12 kg, Hazleton, after fast or 30 minutes after diet in a dose of 200 mg/kg.
# Tritoqualine had been subjected to micronization by a jet mill PJM-100NP, NIHON NEWMATIC KOGYO KK, JAPAN (10 % or more of 3 microns or less, 80 % of 3-15 microns and 10 % or less of 15 microns or more; average of 7 microns) or a screen of 100 mesh under. The obtained particles were suspended in aqueous 1 % Tween 80 solution before use. […]
# Before the administration, and 0.5, 1, 2, 3 and 5 hours after the administration, 1 ml of blood was taken out of the vein of front leg, placed into a BHA-coated centrifugal tube "VENOJECT" containing heparin, TERMO INC., and centrifuged. Hundred microliters of the thus obtained plasma was placed into a small glass test tube, which had been coated with 1 microgram of BHA. Into the tube were added 190 microliters of noscapine (100 micrograms in ml of acetonitrile) as an internal standard and 10 microliters of acetonitrile. After blending for one minute, the mixture was centrifuged at 3,000 rpm for 5 minutes. The resulting supernatant was subjected to HPLC under the conditions described below.
# The quantitative measurements of tritoqualine in the plasma were carried out according to the internal standard method. The area under curve (AUC) was calculated by the trapezoidal rule. […]
# [4] = test system: patients suffering from chronic hepatitis; assay: Clinical investigation in chronic hepatitis, oral administration for 8 weeks after every diet; type: in vivo; settings: for improvement of liver functions (patients): 8 weeks
# Method: To patients suffering from chronic hepatitis tritoqualine was administered orally for 8 weeks continuously in a daily dose of 150 or 300 mg after every diet.
# Glutamate oxaloacetate transaminase (GOT) and glutamate pyruvate transaminase (GPT) were measured just before the first administration, and 4 and 8 weeks after the first administration.
# During the above investigations, there were few cases where slight side effects such as dizziness and nausea, which were suspected to have a relation with the administered drug, appeared : in one case among 65 cases administered in a dose of 150 mg, i.e. 1.5 %; and 8 cases among 137 cases in a dose of 300 mg, i.e. 5.8 %.
# When tritoqualine was administered in a dose of 600 mg in the same manner as described above, side effects appeared in 24 cases among 164 cases, i.e. 14.6 %.
# [5] = test system: patients with chronic active hepatitis; settings: daily dosages 600 to 1600 mg, 13 patients; particularly at 1200-1600 mg/day; cited from earlier work
# [6] = 10 µM, Incubation Period 10 min
# [7] = 100 µM, Incubation Period 5 min
# [8] = 100 µM, Incubation Period 10 min
compound,measurement,setting,value
"CCOc1c(N)c2c(c(OCC)c1OCC)C(C1c3c(cc4c(c3OC)OCO4)CCN1C)OC2=O (stereo not drawn) [Compound No. 1, 7-amino-4,5,6-triethoxy-3-(5,6,7,8-tetrahydro-4-methoxy-6-methyl-1,3-dioxolo(4,5-g)isoquinolin-5-yl)phthalide]",MDA Amount Produced,"rat liver microsome; 3.3 µM, Incubation Period 5 min",1.80 ± 0.12 nmol/mg of protein
same,MDA Amount Produced,"rat liver microsome; 3.3 µM, Incubation Period 10 min",2.25 ± 0.21 nmol/mg of protein
same,MDA Amount Produced,"rat liver microsome; 10 µM, Incubation Period 5 min",1.71 ± 0.12 nmol/mg of protein
same,MDA Amount Produced,rat liver microsome; [6],1.80 ± 0.06 nmol/mg of protein
same,MDA Amount Produced,"rat liver microsome; 33 µM, Incubation Period 5 min",1.50 ± 0.05 nmol/mg of protein
same,MDA Amount Produced,"rat liver microsome; 33 µM, Incubation Period 10 min",1.62 ± 0.02 nmol/mg of protein
same,MDA Amount Produced,rat liver microsome; [7],1.37 ± 0.02 nmol/mg of protein
same,MDA Amount Produced,rat liver microsome; [8],1.37 ± 0.05 nmol/mg of protein
same,inhibition at 10 µM,isolated hepatocytes,77.3%
same,MDA Amount Produced,[1]; 25 mg/kg oral,333.0 ± 54.3 nmol/g of liver
same,MDA Amount Produced,[1]; 50 mg/kg oral,328.5 ± 50.8 nmol/g of liver
same,MDA Amount Produced,[1]; 100 mg/kg oral,171.0 ± 23.6 nmol/g of liver
same,inhibition at 3.3 µM,[2],15.4%
same,inhibition at 10 µM,[2],53.9%
same,inhibition at 33 µM,[2],58.8%
same,IC50,[2],15.9 µM
same,inhibiting activity to the histamine release,Mast cells,strong inhibiting activity
COc1ccc2c(c1OC)C(=O)OC2C1c2c(cc3c(c2OC)OCO3)CCN1C (stereo not drawn) [compound 2],inhibition at 10 µM,isolated hepatocytes,42.4%
CCOc1c(N)c2c(c(OCC)c1OCC)C(C1c3c(cc(OC)c4c3OCO4)CCN1C)OC2=O (stereo not drawn) [compound 3],inhibition at 10 µM,isolated hepatocytes,76.9%
same,inhibition at 3.3 µM,[2],34.9%
same,inhibition at 10 µM,[2],59.9%
same,inhibition at 33 µM,[2],66.2%
same,IC50,[2],7.2 µM
same,inhibiting activity to the histamine release,Mast cells,strong inhibiting activity
CCOc1c(OCC)c2c(c([N+](=O)[O-])c1OCC)C(=O)OC2C1c2c(cc3c(c2OC)OCO3)CCN1C (stereo not drawn) [compound 4],inhibition at 10 µM,isolated hepatocytes,28.6%
"CCOc1c(N)c2c(c(OCC)c1OCC)C(C1c3c(cc4c(c3OC)OCO4)CCN1CC)OC2=O (stereo not drawn) [compound 5, 2-ethyl-6,7-methylenedioxy-8-methoxy-1-(4,5,6-triethxy-7-amino-3-phthalidyl)-1,2,3,4-tetrahydroisoquinoline]",inhibition at 10 µM,isolated hepatocytes,68.6%
same,inhibition at 3.3 µM,[2],49.2%
same,inhibition at 10 µM,[2],65.8%
same,inhibition at 33 µM,[2],60.3%
same,IC50,[2],1.8 µM
CCOc1c(N)c2c(c(OCC)c1OCC)C(C1c3cc(OC)c(OC)cc3CCN1C)OC2=O (stereo not drawn) [compound 6],inhibition at 10 µM,isolated hepatocytes,47.6%
same,inhibition at 3.3 µM,[2],0.9%
same,inhibition at 10 µM,[2],14%
same,inhibition at 33 µM,[2],41.1%
same,IC50,[2],45.1 µM
"CCOc1c(N)c2c(c(OCC)c1OCC)C(C1c3c(cc4c(c3OC)OCO4)CCN1C)OC2=O (stereo not drawn) [tritoqualine, 7-amino-4,5,6-triethoxy-3-(5,6,7,8-tetrahydro-4-methoxy-6-methyl-1,3-dioxolo(4,5-g)isoquinolin-5-yl)phthalide]",AUC,[3]; 100 mesh under 200 mg/kg oral,187 ng·h/mL
same,AUC,[3]; Micronisation 200 mg/kg oral,674 ng·h/mL
same,improvement of liver functions (patients),"[4]; daily dose 150 mg oral, 27 among 62 patients",44.3%
same,improvement of liver functions (patients),"[4]; daily dose 300 mg oral, 79 among 135 patients",61.2%
same,side effects such as dizziness and nausea (cases),"[4]; dose of 150 mg, one case among 65 cases",1.5%
same,side effects such as dizziness and nausea (cases),"[4]; dose of 300 mg, 8 cases among 137 cases",5.8%
same,side effects (cases),"[4]; dose of 600 mg, 24 cases among 164 cases",14.6%
same,fibrosis with cellular infiltration on biopsied liver specimens,[5],reduction of fibrosis
same,liver functions,[5],marked improvement
Vitamin E [reference compound],MDA Amount Produced,rat liver microsome; [6],2.37 ± 0.21 nmol/mg of protein
same,MDA Amount Produced,rat liver microsome; [7],2.06 ± 0.001 nmol/mg of protein
same,MDA Amount Produced,rat liver microsome; [8],2.62 ± 0.07 nmol/mg of protein
same,MDA Amount Produced,"rat liver microsome; 1000 µM, Incubation Period 5 min",2.06 ± 0.016 nmol/mg of protein
same,MDA Amount Produced,"rat liver microsome; 1000 µM, Incubation Period 10 min",2.29 ± 0.14 nmol/mg of protein
same,Free MDA (3 hours) % Inhibition,isolated hepatocytes,13%
same,MDA Amount Produced,[1]; 50 mg/kg oral,104.0 ± 18.4 nmol/g of liver
